Results from patent publication US4963530A, “Renin inhibitor peptide compounds, a process for the preparation thereof and pharmaceutical composition comprising the same” (Fujisawa Pharmaceutical Company, Ltd., priority 1987, dated 1990).
Where a chain is given by its changes, count along the chain named. pIC50: −log10 of the molar value.

Assays:
[1] = biological target: T1, endogenous renin in human plasma (Homo sapiens, UniProt P00797); experiment: Test 1: inhibition of human plasma renin activity (Ang I formation, RIA); format: biochemical; conditions: human plasma pool, pH 6.0, 37° C., 90 minutes incubation, Probit method; read-out: IC50 (concentration that inhibited plasma renin activity by 50%)
T1 construct: incubation (37° C.) of the endogenous renin and angiotensinogen in plasma at pH 6.0; from tissue; host or cells: pooled human plasma (EDTA) from male volunteers
T1 sequence (P00797 67-406): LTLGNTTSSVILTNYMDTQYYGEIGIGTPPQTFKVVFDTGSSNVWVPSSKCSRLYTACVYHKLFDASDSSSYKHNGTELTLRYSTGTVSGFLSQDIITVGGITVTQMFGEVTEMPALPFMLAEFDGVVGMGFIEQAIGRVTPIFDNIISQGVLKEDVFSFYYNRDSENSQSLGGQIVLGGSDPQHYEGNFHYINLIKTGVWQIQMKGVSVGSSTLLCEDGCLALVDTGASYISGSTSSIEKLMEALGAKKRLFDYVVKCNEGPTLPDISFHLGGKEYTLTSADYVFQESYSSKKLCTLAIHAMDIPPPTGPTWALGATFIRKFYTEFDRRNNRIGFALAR
Description: Human plasma was collected from male volunteers pretreated with no drugs and used as a pool. Disodium salt of ethylenediaminetetraacetic acid (EDTA) was used as the anticoagulant. Plasma renin activity was measured as the rate of angiotensin I (Ang I) formation after incubation (37° C.) of the endogenous renin and angiotensinogen in plasma at pH 6.0. The incubation mixture contained 250 μl of plasma, 5 μl of (phenylmethyl)sulfonyl fluoride, 30 μl of buffer (sodium, potassium-phosphate, pH 6.0), and 15 μl of an appropriate concentration of test compound in 50% ethyl alcohol-water vehicle. The Ang I formed after 90 minutes of incubation was measured by radioimmunoassay (RIA) which was carried out with a commercial kit, RENCTK 100 (manufactured by Commissariat A L'energie Atomique). Samples were incubated in duplicate and each tube was measured in duplicate in the RIA. Percentage inhibition of plasma renin activity was calculated by comparing the amount of Ang I produced with and without a test compound. The concentration of test compound that inhibited plasma renin activity by 50% ) (IC50) was determined by Probit method.

[2] = Test 2: hypotensive effect (mean arterial blood pressure) in sodium-depleted conscious cynomolgus monkeys, oral; format: in vivo, cynomolgus monkeys (Macaca fascicularis); conditions: 32 mg/kg po, sodium-depleted (furosemide) conscious cynomolgus monkeys, MAP measured 0-6 hours
Description: (§1) Male or female cynomolgus monkeys (Macaca fascicularis) weighing about 2.5-3.5 kg were used. Sodium depletion was achieved by administering furosemide, 15 mg/kg subcutaneously one day before and then 10 mg/kg intravenously 30 minutes before the administration of the test compound.
(§2) Test compounds were dissolved in diluted equimolar hydrochloric acid (pH 5-6) and orally administered to conscious and trained monkeys placed in restraining chairs with pneumatic cuff positioned around the arm for oscillometric measurement of mean arterial blood pressure (MAP) (Model BP-203 NPJ, manufactured by Nippon Colin).
The MAP was measured at 0 (predosing base line), 0.5, 1, 2, 3, 4 and 6 hours after administration of the test compound. The maximum hypotensive effect was calculated as the maximum percentage fall of MAP from the pretreatment value.

[3] = biological target: T2, plasma renin activity (PRA) (Macaca fascicularis, UniProt Q6DLS0); experiment: Test 2: inhibition of plasma renin activity (PRA) in sodium-depleted cynomolgus monkeys after oral dosing; format: in vivo, cynomolgus monkeys (Macaca fascicularis); conditions: cynomolgus monkey; 32 mg/kg po, sodium-depleted (furosemide) cynomolgus monkeys, plasma collected 0-6 hours after dosing; read-out: Maximum inhibition of PRA
T2 construct: plasmas were obtained for determination of plasma renin activity (PRA); from tissue; host or cells: plasma of sodium-depleted cynomolgus monkeys, collected after oral dosing
T2 sequence (Q6DLS0 67-406): T1 sequence (P00797 67-406) with T2A, I148L, S169A
Description: as §1, §2
Blood samples were collected at 0, 0.5, 1, 2, 4 and 6 hours after dosing from the antecubital vein of the monkey into disodium salt of EDTA coated tubes, centrifuged for 10 min (3000 rpm, 4° C.) and plasmas were obtained for determination of plasma renin activity (PRA). PRA was measured as the rate of Ang I formation with the same principle as illustrated in Test 1. 100 μl of sample plasma was mixed with 100 μl of the solution of angiotensinase inhibitors (3 mM 8-hydroxyquinoline sulfate and 5 mM 2,3-dimercaptopropanol , SB-REN-1, SORIN BIOMEDICA, Italy). Half (100 μl) of the mixture was incubated at 37° C. for one hour and Ang I formed was determined by a commercial RIA kit (DINABOTT). […] Percentage inhibition of PRA was calculated by the following formula: [formula] […]

CC(C)CC[C@H](O)[C@H](CC1CCCCC1)NC(=O)[C@H](Cc1c[nH]cn1)NC(=O)[C@H](Cc1ccccc1)NC(=O)N1CCOCC1 [Test Compound (a), 2(S)-(N-Morpholinocarbonyl-L-phenylalanyl-L-histidyl)amino-1-cyclohexyl-3(S)-hydroxy-6-methylheptane]
pIC50 [1]: 7.21

CC(C)CC[C@H](O)[C@H](CC1CCCCC1)NC(=O)[C@H](Cc1c[nH]cn1)N(C)C(=O)[C@H](Cc1ccccc1)NC(=O)N1CCOCC1 [Test Compound (b), 2(S)-(N-Morpholinocarbonyl-L-phenylalanyl-N^α -methyl-L-histidyl)amino-1-cyclohexyl-3(S)-hydroxy-6-methylheptane]
pIC50 [1]: 7.68 | Maximum hypotensive effect (maximum percentage fall of MAP from pretreatment value) [2]: 25% | inhibition at 32 mg/kg [3]: 96%

CC(C)CC[C@H](O)[C@H](CC1CCCCC1)NC(=O)[C@H](Cc1c[nH]cn1)N(C)C(=O)[C@H](Cc1ccccc1)NC(=O)N1CCSCC1 [Test Compound (c), 2(S)-(N-Thiomorpholinocarbonyl-L-phenylalanyl-N^α -methyl-L-histidyl)amino-1-cyclohexyl-3(S)-hydroxy-6-methylheptane]
pIC50 [1]: 7.62

CC(C)CC[C@H](O)[C@H](CC1CCCCC1)NC(=O)[C@H](Cc1c[nH]cn1)N(C)C(=O)[C@H](Cc1ccccc1)NC(=O)N1CCc2ccccc2C1 [Test Compound (d), 2(S)-[N-(1,2,3,4-Tetrahydroisoquinolin-2-ylcarbonyl)-L-phenylalanyl-N^α -methyl-L-histidyl]amino-1-cyclohexyl-3(S)-hydroxy-6-methylheptane]
pIC50 [1]: 7.22
